The target in one test is T1, Recombinant IKKβ (Homo sapiens, UniProt O14920).
T1 construct: purchased Millipore, Dundee, UK
T1 sequence (O14920 1-756): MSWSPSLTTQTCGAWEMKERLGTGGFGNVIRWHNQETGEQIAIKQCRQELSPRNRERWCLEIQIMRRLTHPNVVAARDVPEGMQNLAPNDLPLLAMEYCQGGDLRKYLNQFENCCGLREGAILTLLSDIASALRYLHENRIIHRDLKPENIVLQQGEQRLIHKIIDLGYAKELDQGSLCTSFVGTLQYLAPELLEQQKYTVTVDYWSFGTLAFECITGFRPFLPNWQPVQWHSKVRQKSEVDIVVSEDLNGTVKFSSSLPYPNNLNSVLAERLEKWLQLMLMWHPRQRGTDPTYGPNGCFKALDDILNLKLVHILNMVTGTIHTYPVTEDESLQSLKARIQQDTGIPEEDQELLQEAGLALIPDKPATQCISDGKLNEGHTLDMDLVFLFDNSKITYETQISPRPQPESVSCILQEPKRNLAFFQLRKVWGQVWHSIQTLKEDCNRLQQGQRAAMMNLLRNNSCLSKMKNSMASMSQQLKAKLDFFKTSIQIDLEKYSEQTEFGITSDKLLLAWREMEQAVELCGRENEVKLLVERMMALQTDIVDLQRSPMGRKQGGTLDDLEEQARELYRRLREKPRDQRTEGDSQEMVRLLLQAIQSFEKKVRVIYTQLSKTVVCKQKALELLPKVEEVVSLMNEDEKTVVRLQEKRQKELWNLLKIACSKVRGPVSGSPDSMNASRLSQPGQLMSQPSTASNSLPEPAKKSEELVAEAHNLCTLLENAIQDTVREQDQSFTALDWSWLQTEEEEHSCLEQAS
As to the kind of experiment: DELFIA IKKβ kinase assay (apparent Ki, Cheng-Prusoff). The format is biochemical. Particulars: DELFIA assay (first line of an example). Put shortly: (§1)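 DELFIA time-resolved fluorescence (ex 340/em 615 nm) quantified phosphorylation of a biotinylated IκB-α Ser32 peptide (0.375 μM) by 37 nM recombinant IKKα or IKKβ. Reactions used 40 μM ATP, Tris pH 7.5 buffer with MgCl2, DTT and BSA, 60 min at 30° C. Cheng-Prusoff equation gave apparent Ki.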

A further test addresses T2, Recombinant IKKα (Homo sapiens, UniProt O15111).
T2 construct: purchased Millipore, Dundee, UK
T2 sequence (O15111 1-745): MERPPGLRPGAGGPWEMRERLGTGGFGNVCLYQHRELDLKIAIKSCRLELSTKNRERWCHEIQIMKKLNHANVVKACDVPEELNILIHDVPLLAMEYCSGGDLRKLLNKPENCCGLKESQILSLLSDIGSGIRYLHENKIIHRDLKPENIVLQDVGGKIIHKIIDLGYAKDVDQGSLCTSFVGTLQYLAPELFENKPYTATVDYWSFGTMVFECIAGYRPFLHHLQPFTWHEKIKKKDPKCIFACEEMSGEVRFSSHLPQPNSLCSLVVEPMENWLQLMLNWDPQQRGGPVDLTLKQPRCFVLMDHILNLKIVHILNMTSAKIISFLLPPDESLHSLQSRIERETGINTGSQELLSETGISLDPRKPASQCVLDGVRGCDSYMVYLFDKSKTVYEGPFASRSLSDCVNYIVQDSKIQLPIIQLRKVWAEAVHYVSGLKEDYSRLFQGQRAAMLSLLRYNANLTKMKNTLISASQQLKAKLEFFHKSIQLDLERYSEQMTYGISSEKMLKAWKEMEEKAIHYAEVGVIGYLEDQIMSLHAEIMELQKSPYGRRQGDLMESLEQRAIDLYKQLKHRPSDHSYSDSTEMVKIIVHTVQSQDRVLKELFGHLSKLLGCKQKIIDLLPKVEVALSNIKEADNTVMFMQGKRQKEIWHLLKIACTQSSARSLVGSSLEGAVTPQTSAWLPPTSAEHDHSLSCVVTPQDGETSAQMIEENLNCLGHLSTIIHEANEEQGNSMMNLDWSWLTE
Put plainly: DELFIA IKKα kinase assay (apparent Ki, Cheng-Prusoff). The format is biochemical. The conditions noted are these: DELFIA assay (first line of an example). The essentials: as §1

Molecules are shown by their SMILES. A value given as a limit tells only on which side of the number the result lay.

On to `CC(C)(C)C#Cc1cc(-c2ccnc(NC#N)c2)cc2c(N)n[nH]c12` [Example 309, N-(4-(3-Amino-7-(3,3-dimethylbut-1-yn-1-yl)-1H-indazol-5-yl)pyridin-2-yl)cyanamide], for which the Ki worked out at 8660 nM at Recombinant IKKβ and 421 nM at Recombinant IKKα.

Take `CC(C)(C)C#Cc1cc(-c2ccnc(Nc3cc[nH]n3)c2)cc2c(N)n[nH]c12` [Example 310, 5-(2-((1H-Pyrazol-3-yl)amino)pyridin-4-yl)-7-(3,3-dimethylbut-1-yn-1-yl)-1H-indazol-3-amine]: the values for the Ki at Recombinant IKKβ and on Recombinant IKKα were 205 nM and 48 nM, respectively.

Regarding `CC(C)(C)C#Cc1cc(-c2ccnc(Nc3cn[nH]c3)c2)cc2c(N)n[nH]c12` [Example 311, 5-(2-((1H-Pyrazol-4-yl)amino)pyridin-4-yl)-7-(3,3-dimethylbut-1-yn-1-yl)-1H-indazol-3-amine], the Ki at Recombinant IKKβ stood at 280 nM; at Recombinant IKKα, 10 nM.

On to `Cc1cc(Nc2cc(-c3cc(C#CC(C)(C)C)c4[nH]nc(N)c4c3)ccn2)n[nH]1` [Example 312, 7-(3,3-Dimethylbut-1-yn-1-yl)-5-(2-((5-methyl-1H-pyrazol-3-yl)amino)pyridin-4-yl)-1H-indazol-3-amine], for which the Ki at Recombinant IKKβ amounted to 210 nM; on Recombinant IKKα, 45 nM.

For the molecule `Cc1n[nH]cc1Nc1cc(-c2cc(C#CC(C)(C)C)c3[nH]nc(N)c3c2)ccn1` [Example 313, 7-(3,3-Dimethylbut-1-yn-1-yl)-5-(2-((3-methyl-1H-pyrazol-4-yl)amino)pyridin-4-yl)-1H-indazol-3-amine], the Ki at Recombinant IKKβ is 940 nM; on Recombinant IKKα, 24 nM.

`CC(C)(C)C#Cc1cc(-c2ccnc(Nc3nccs3)c2)cc2c(N)n[nH]c12` [Example 314, N-(4-(3-Amino-7-(3,3-dimethylbut-1-yn-1-yl)-1H-indazol-5-yl)pyridin-2-yl)thiazol-2-amine]: the Ki on Recombinant IKKβ is at least 10000 nM; on Recombinant IKKα it was 911 nM.

Turning to `Cc1coc(Nc2cc(-c3cc(C#CC(C)(C)C)c4[nH]nc(N)c4c3)ccn2)n1` [Example 315, N-(4-(3-Amino-7-(3,3-dimethylbut-1-yn-1-yl)-1H-indazol-5-yl)pyridin-2-yl)-4-methyloxazol-2-amine], the Ki on Recombinant IKKβ came out at 836 nM; at Recombinant IKKα, 54 nM.

Take `CC(C)(C)C#Cc1cc(-c2ccnc(Nc3nc(C(F)(F)F)co3)c2)cc2c(N)n[nH]c12` [Example 316, N-(4-(3-Amino-7-(3,3-dimethylbut-1-yn-1-yl)-1H-indazol-5-yl)pyridin-2-yl)-4-(trifluoromethyl)oxazol-2-amine]: the Ki on Recombinant IKKβ was over 30000 nM; at Recombinant IKKα, 335 nM.

On to `Cc1noc(C)c1Nc1cc(-c2cc(C#CC(C)(C)C)c3[nH]nc(N)c3c2)ccn1` [Example 317, N-(4-(3-amino-7-(3,3-dimethylbut-1-yn-1-yl)-1H-indazol-5-yl)pyridin-2-yl)-3,5-dimethylisoxazol-4-amine], for which the Ki on Recombinant IKKβ was 4040 nM; on Recombinant IKKα, 318 nM.

As to `CC(C)(C)C#Cc1cc(-c2ccnc(Nc3c[nH]cn3)c2)cc2c(N)n[nH]c12` [Example 318, 5-(2-((1H-Imidazol-4-yl)amino)pyridin-4-yl)-7-(3,3-dimethylbut-1-yn-1-yl)-1H-indazol-3-amine], the Ki amounted to 502 nM at Recombinant IKKβ and 66 nM at Recombinant IKKα.

For `CC(C)(C)C#Cc1cc(-c2ccnc(Nc3nnc[nH]3)c2)cc2c(N)n[nH]c12` [Example 319, 5-(2-((4H-1,2,4-Triazol-3-yl)amino)pyridin-4-yl)-7-(3,3-dimethylbut-1-yn-1-yl)-1H-indazol-3-amine], the Ki turned out to be 486 nM on Recombinant IKKβ and 27 nM at Recombinant IKKα.

As for `Cn1nnc(Nc2cc(-c3cc(C#CC(C)(C)C)c4[nH]nc(N)c4c3)ccn2)n1` [Example 320, 7-(3,3-Dimethylbut-1-yn-1-yl)-5-(2-((2-methyl-2H-tetrazol-5-yl)amino)pyridin-4-yl)-1H-indazol-3-amine], the Ki at Recombinant IKKβ came out at 18.5 nM; at Recombinant IKKα, 5 nM.

For `CC(C)(C)C#Cc1cc(-c2ccnc(Nc3ncccn3)c2)cc2c(N)n[nH]c12` [Example 321, 7-(3,3-Dimethylbut-1-yn-1-yl)-5-(2-(pyrimidin-2-ylamino)pyridin-4-yl)-1H-indazol-3-amine], the Ki at Recombinant IKKβ turned out to be 4580 nM; on Recombinant IKKα it was 202 nM.

For `CC(C)(C)C#Cc1cc(-c2ccnc(NC3CCOC3)c2)cc2c(N)n[nH]c12` (stereo not drawn) [Example 322, 7-(3,3-Dimethylbut-1-yn-1-yl)-5-(2-((tetrahydrofuran-3-yl)amino)pyridin-4-yl)-1H-indazol-3-amine], the Ki on Recombinant IKKβ came out at 3130 nM; on Recombinant IKKα it was 45 nM.

Take `COC(=O)Nc1cc(-c2cc(-c3ccc(O)cc3)c3[nH]nc(N)c3c2)ccn1` [Example 323, Methyl (4-(3-Amino-7-(4-hydroxyphenyl)-1H-indazol-5-yl)pyridin-2-yl)carbamate]: the results for the Ki on Recombinant IKKβ and on Recombinant IKKα were 83 nM and 9.8 nM, respectively.

`Nc1n[nH]c2c(-c3ccc(O)cc3)cc(-c3ccnc(NC4COC4)c3)cc12` [Example 324, 4-(3-Amino-5-(2-(oxetan-3-ylamino)pyridin-4-yl)-1H-indazol-7-yl)phenol]: the Ki on Recombinant IKKβ came to 4730 nM; at Recombinant IKKα it was 8090 nM.

`COC(=O)Nc1cc(-c2cc(-c3ccc(N)cc3)c3[nH]nc(N)c3c2)ccn1` [Example 325, Methyl (4-(3-amino-7-(4-aminophenyl)-1H-indazol-5-yl)pyridin-2-yl)carbamate]: the Ki at Recombinant IKKβ stood at 79 nM; on Recombinant IKKα, 6 nM.

For the molecule `COC(=O)Nc1cc(-c2cc(-c3ccc(NC(C)=O)cc3)c3[nH]nc(N)c3c2)ccn1` [Example 326, Methyl (4-(7-(4-acetamidophenyl)-3-amino-1H-indazol-5-yl)pyridin-2-yl)carbamate], the Ki at Recombinant IKKβ was 87 nM; at Recombinant IKKα, 14 nM.

Consider `COC(=O)Nc1cc(-c2cc(-c3ccc(C(N)=O)cc3)c3[nH]nc(N)c3c2)ccn1` [Example 327, Methyl (4-(3-amino-7-(4-carbamoylphenyl)-1H-indazol-5-yl)pyridin-2-yl)carbamate], for which the results for the Ki on Recombinant IKKβ and at Recombinant IKKα were 3790 nM and 614 nM, respectively.

For `COC(=O)Nc1cc(-c2cc(-c3ccc(CN4CCOCC4)cc3)c3[nH]nc(N)c3c2)ccn1` [Example 328, Methyl (4-(3-amino-7-(4-(morpholinomethyl)phenyl)-1H-indazol-5-yl)pyridin-2-yl)carbamate], the Ki on Recombinant IKKβ was determined as 407 nM; at Recombinant IKKα, 24 nM.

As for `Nc1cc(-c2cc(-c3ccc(CCN4CCOCC4)cc3)c3[nH]nc(N)c3c2)ccn1` [Example 329, 5-(2-Aminopyridin-4-yl)-7-(4-(2-morpholinoethyl)phenyl)-1H-indazol-3-amine], the figures for the Ki on Recombinant IKKβ and at Recombinant IKKα were 108 nM and 14 nM, respectively.

Turning to `COC(=O)Nc1cc(-c2cc(-c3ccc(CCN4CCOCC4)cc3)c3[nH]nc(N)c3c2)ccn1` [Example 330, Methyl (4-(3-amino-7-(4-(2-morpholinoethyl)phenyl)-1H-indazol-5-yl)pyridin-2-yl)carbamate], the Ki at Recombinant IKKβ and on Recombinant IKKα was over 10000 nM in each case.

As for `COC(=O)Nc1cc(-c2cc(-c3cccc(CN4CCOCC4)c3)c3[nH]nc(N)c3c2)ccn1` [Example 334, Methyl (4-(3-amino-7-(3-(morpholinomethyl)phenyl)-1H-indazol-5-yl)pyridin-2-yl)carbamate], the Ki on Recombinant IKKβ was 429 nM; on Recombinant IKKα, 38 nM.

Consider `Nc1n[nH]c2ccc(-c3ccnc(NC(=O)CC4CCCCC4)c3)cc12` [Example 335, N-(4-(3-Amino-1H-indazol-5-yl)pyridin-2-yl)-2-cyclohexylacetamide], for which the Ki at Recombinant IKKβ came out at 4200 nM; on Recombinant IKKα it was 340 nM.

(Values after US20250304576A1 (Cancer Research Technology Limited, priority 2022, published 2025).)
